Target: T1, chymotrypsin-like activity of the proteasome (Mus musculus, UniProt O55234)
T1 construct: measurement of proteasome activity in whole blood (primarily erythrocytes); from tissue; host or cells: whole blood (primarily erythrocytes), adrenal, liver and heart of BALB/C mice
T1 sequence (O55234 60-264): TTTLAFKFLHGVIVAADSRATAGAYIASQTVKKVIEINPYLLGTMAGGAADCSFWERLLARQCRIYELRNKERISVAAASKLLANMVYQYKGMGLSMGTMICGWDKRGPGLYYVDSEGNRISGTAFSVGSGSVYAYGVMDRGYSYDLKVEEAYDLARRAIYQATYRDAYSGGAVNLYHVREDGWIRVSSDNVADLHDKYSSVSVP
Test: Pharmacodynamic response: proteasome activity in whole blood, adrenal, liver and heart (LLVY-AMC substrate)
Format: in vivo, BALB/C mice
Conditions: mice, single i.v. dose, whole blood (primarily erythrocytes), up to 24 hours
Description: The pharmacodynamic response of carfilzomib formulated in SBE-B-CD (CFZ SBE-B-CD) (using a non-liposomal, injectable composition of carfilzomib formulated in 10% sulfobutylether beta cyclodextrin (SBE-B-CD), 10 mM Citrate, pH 3.5 (see, e.g., U.S. Patent Publication Nos. 2011/0236428)), empty liposomes (Composition D), liposomes comprising CFZ (L-CFZ, Composition C), and pegylated liposomes comprising (pL-CFZ, Composition E) was evaluated in BALB/C mice following a single intravenous bolus administration.
The mice (three mice per time point) were administered a dose of 10 mg/kg in a dose volume of 5 mL/kg. […] The pharmacodynamic response was determined by measurement of proteasome activity in whole blood (primarily erythrocytes) (see FIG. 2A), adrenal (see FIG. 2B), liver (see FIG. 2C), and heart (see FIG. 2D), using a fluorogenic substrate (LLVY-AMC [Leu-Leu-Val-Tyr-AMC {AMC=7-amido 4-methylcoumarin}]; as described by Lightcap E S, McCormack T A, Pien C S, et al., Clin. Chem. 46:673-683 (2000)) to quantitate the chymotrypsin-like activity of the proteasome. […] Three tissue samples were evaluated per time point for each tissue from each mouse.
The pharmacodynamic response of liposomal compositions comprising liposomes comprising an aqueous core loaded with CFZ complexed with SBE-B-CD was evaluated in BALB/C mice following a single intravenous bolus administration. […]

CC(C)C[C@H](NC(=O)[C@H](CCc1ccccc1)NC(=O)CN1CCOCC1)C(=O)N[C@@H](Cc1ccccc1)C(=O)N[C@@H](CC(C)C)C(=O)[C@@]1(C)CO1 [carfilzomib]
recovery of proteasome activity in blood: no recovery
